Laboratory results as given in US20190194179A1, “ANTIBIOTIC COMPOUNDS” (DISCUVA LTD., priority 2016, published 2019).
Like-named read-outs stand apart in the source and are kept apart here.

How the values were obtained:
Type in all cases: cell-based
Enterococcus Spp. = test: EC50 determination: broth growth assay of Enterococcus Spp. (Isosensitest broth); settings: Table 1, panel of bacteria, 37° C.
Protocol: (§1) Actively growing Neisseria gonorrhoeae on GC agar (based on; Spence et. al. (2008): Curr. Protoc. Microbiol. 8:4A.1.1-4A.1.26) plates are harvested and transferred to GC broth (based on; Spence et al (2008): Curr. Protoc. Microbiol. 8:4A.1.1-4A.1.26) to generate a liquid stock. This culture is allowed to establish and grow to mid-log phase (at 37° C./5% CO2), finally this culture is diluted (˜10^5 cells/ml) to generate a seed inoculum to establish plate-based broth assays. EC50 values were determined by assaying growth (absorbance read at 600 nm, after 20 hours at 37° C./5% CO2) of Neisseria gonorrhoeae across a 10-point dilution series of the test compound. The EC50 value is determined from transformed data to identify the concentration of compound giving a 50% response relative to control samples (no compound).
(§2) EC50 determination for Staphylococcus aureus and Enterococcus Spp. followed a similar procedure but were conducted using Isosensitest broth (Oxoid) with incubations at 37° C. in atmospheric air. Final absorbance reads were conducted during the late exponential growth phase.

Neisseria gonorrhoeae = test: EC50 determination: plate-based broth growth assay (absorbance at 600 nm) of Neisseria gonorrhoeae; settings: absorbance 600 nm after 20 hours at 37° C./5% CO2, read-out: IC50 (Inhibitory concentration) against Neisseria gonorrhoeae
Method in brief: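 Mid-log culture diluted to ~10^5 cells/ml as inoculum and grown 20 hours at 37° C./5% CO2 across a 10-point compound dilution series. Growth read as absorbance at 600 nm; EC50 taken from transformed data as the concentration giving 50% response relative to no-compound controls.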

Staphylococcus aureus = test: EC50 determination: broth growth assay of Staphylococcus aureus (Isosensitest broth); settings: Table 1, panel of bacteria, 37° C., read-out: IC50 concentration against Staphylococcus aureus
Protocol: as §1, §2

[1] = Enterococcus faecalis, read-out: IC50 concentration against Entercoccus faecalis
[2] = Enterococcus faecium, read-out: IC50 concentration against Enterococcus faecium

IC50 (Neisseria gonorrhoeae)	IC50 (Staphylococcus aureus)	SMILES	IC50 (Enterococcus Spp.; [1])	IC50 (Enterococcus Spp.; [2])
≤ 0.1 µM	≤ 1 µM	FC(F)(F)c1ccc2oc(Nc3nnco3)nc2c1 [Example 67, N-(1,3,4-Oxadiazol-2-yl)-5-(trifluoromethyl)benzo[d]oxazol-2-amine]	≤ 10 µM	≤ 1 µM
≤ 0.1 µM	≤ 10 µM	FC(F)(F)c1ccc2oc(Nc3nc4cnccc4o3)nc2c1 [Example 60, N-(5-(triFluoromethyl)benzo[d]oxazol-2-yl)oxazolo[4,5-c]pyridin-2-amine]	≤ 1 µM	≤ 10 µM
≤ 1 µM	≤ 1 µM	Cc1nnc(Nc2nc3cc(C(F)(F)F)ccc3o2)[nH]1 [Example 117, N-(5-Methyl-4H-1,2,4-triazol-3-yl)-5-(trifluoromethyl)benzo[d]oxazol-2-amine]	≤ 10 µM	≤ 10 µM

The remaining lines, values behind:

SMILES	IC50 (Neisseria gonorrhoeae)	IC50 (Staphylococcus aureus)	IC50 (Enterococcus Spp.; [1])	IC50 (Enterococcus Spp.; [2])
Clc1ccc2nc(Nc3nc4cnccc4o3)oc2c1 [Example 159, N-(6-Chlorobenzo[d]oxazol-2-yl)oxazolo[4,5-c]pyridin-2-amine]	≤ 100 µM	≤ 100 µM	≤ 100 µM	≤ 100 µM
FC(F)(F)c1cc2oc(Nc3nc4cc(Cl)ccc4o3)nc2cn1 [Example 165, N-(5-Chlorobenzo[d]oxazol-2-yl)-6-(trifluoromethyl) oxazolo[4,5-c]pyridin-2-amine]	≤ 1 µM	≤ 10 µM	≤ 10 µM	≤ 10 µM
FC(F)(F)c1cc2nc(Nc3nnc(CN4CCCC4)o3)oc2cc1Cl [Example 80, 6-Chloro-N-(5-(pyrrolidin-1-ylmethyl)-1,3,4-oxadiazol-2-yl)-5-(trifluoromethyl)benzo[d]oxazol-2-amine]	≤ 0.1 µM	≤ 1 µM	≤ 1 µM	≤ 10 µM
FC(F)(F)c1cc2[nH]c(Nc3nc4ccccc4o3)nc2cn1 [Example 170, N-(6-(Trifluoromethyl)-1H-imidazo[4,5-c]pyridin-2-yl)benzo[d]oxazol-2-amine]	≤ 1 µM	≤ 10 µM	≤ 10 µM	≤ 10 µM
FC(F)(F)c1ccc2nc(Nc3nnc(C4CC4)o3)oc2c1 [Example 105, N-(5-Cyclopropyl-1,3,4-oxadiazol-2-yl)-6-(trifluoromethyl)benzo[d]oxazol-2-amine]	≤ 0.1 µM	≤ 1 µM	≤ 1 µM	≤ 1 µM
